Data: patent publication US9439906B2, “Dosing regimen associated with long acting injectable paliperidone esters” (Janssen Pharmaceutica NV, priority 2007, dated 2016)

How the values were obtained:
[1] = Pharmacokinetic profile of gluteal versus deltoid i.m. injections of paliperidone palmitate 100 mg-eq. (four injections); format: in vivo, human
Experimental: This study was performed to characterize and compare the pharmacokinetic profile of paliperidone palmitate (formulated as described above) following four intramuscular injections in the deltoid or gluteal muscle.
Plasma samples for pharmacokinetic analyses were collected.

[2] = Comparison of single-dose PK profile in the deltoid to that in the gluteal (summary of phase 1 studies); format: in vivo, human
Experimental: The plasma concentration-time profile of paliperidone after single i.m. injection of the paliperidone palmitate formulation at 25-150 mg-eq. has been documented in several studies (Table 4). Details of how the comparison of injection sites study and the dose proportionality studies were performed are provided in Examples 2 and 3.

[3] = Pharmacokinetics in phase 3 study R092670-PSY-3007; format: in vivo, human; conditions: Day 8, 3 dose groups
Experimental: Subjects without source documentation of previous exposure to at least 2 doses of oral risperidone or paliperidone extended-release (ER), at least 1 dose of i.m. RISPERDAL® CONSTA® or paliperidone palmitate, or who were not currently receiving an antipsychotic medication were given 4 to 6 days of paliperidone ER 6 mg/day (or the option of oral risperidone 3 mg/day for subjects in Malaysia) for tolerability testing. Subjects who had source documentation of previous exposure to the above medications and were currently taking another antipsychotic regimen continued their current treatment through Day-1. At the beginning of the double-blind treatment period, subjects were randomly assigned in a 1:1:1:1 ratio to 1 of 4 treatment groups: placebo or paliperidone palmitate 25 mg eq., 100 mg eq., or 150 mg eq. Study medication was administered as 4 doses: an initial i.m. injection of 150 mg eq. of paliperidone palmitate or placebo followed by 3 fixed i.m. doses of placebo or paliperidone palmitate [25, 100, or 150 mg eq.] on Days 8, 36, and 64. The initial injection of study medication was given in the deltoid muscle. Subsequent injections were given either in the deltoid or gluteal muscle at the discretion of the investigator. […] Efficacy and safety were evaluated regularly throughout the study. […]

[4] = Safety and local tolerability in the gluteal versus deltoid multiple-dose study; conditions: for mean injection site pain VSA score: day 1, 8 hours after injection
[5] = Treatment-emergent adverse events in the single-dose dose-proportionality study; conditions: single dose 25-150 mg-eq.
From the text: The subjects were assigned into eight treatment groups: paliperidone palmitate 25 (n=48), 50 (n=50), 100 (n=51) or 150 (n=52) mg-eq. injected into either the deltoid or gluteal muscle.

[6] = 100 mg-eq., combined injection sites

## CCCCCCCCCCCCCCCC(=O)OC1CCCn2c1nc(C)c(CCN1CCC(c3noc4cc(F)ccc34)CC1)c2=O (racemic) [paliperidone palmitate, (±)-3-[2-[4-(6-fluoro-1,2-benzisoxazol-3-yl)-1-piperidinyl]ethyl]-6,7,8,9-tetrahydro-2-methyl-4-oxo-4H-pyrido[1,2-α]pyrimidin-9-yl hexadecanoate]
[1]; after four injections
  median AUC∞, deltoid versus gluteal: similar
[1]; both deltoid and gluteal
  Relative exposure after the fourth injection versus after the second injection: slightly lower
[2]; both injection sites, doses greater than 50 mg eq.
  increase in Cmax versus dose: slightly less than dose proportional
[2]; single dose, deltoid vs gluteal
  median apparent half-life between injection sites: comparable
[2]; single-dose 25 to 150 mg eq., deltoid and gluteal
  total exposure (AUC∞) of paliperidone versus dose: increased proportionally with dose
[3]
  median paliperidone plasma concentrations in high BMI compared to low BMI (<25 kg/m^2) subjects: lower
[4]; [6]
  adverse event: diastolic hypotension: 12%
  adverse event: hypotension: 14%
  adverse event: injection site pain: 14%
  adverse event: orthostatic hypotension: 24%
[4]; 100 mg-eq., four injections
  deaths in the study: no deaths
  serious adverse events (worsening of psychosis) that led to discontinuations: four
  tolerability: well tolerated
[4]; deltoid
  mean injection site pain VSA score: 10.8
[4]; gluteal
  mean injection site pain VSA score: 3.3
[5]
  Treatment-emergent AE: headache: 7%
  Treatment-emergent AE: insomnia: 5%
  Treatment-emergent AE: schizophrenia: 6%
  Treatment-emergent AE: tachycardia: 10%
  deaths: No deaths
  subjects discontinued due to TEAs: 2%
